Measured values published in paper PMC4322620 (Frontiers in Pharmacology, 2015).
Where a SMILES comes first, the peptide text is derived from it. [ ]: non-standard residue; d: D form. pGlu = O=C1CC[C@@H](C(=O)O)N1

Key:
NTS1 (HT-29 cells) = NTS1 (HT-29 cells) (Homo sapiens, UniProt P30989); assay: cell-based
[1] = target: neurotensin receptors (HT-29 cells) (Homo sapiens, UniProt P30989); type: cell-based
neurotensin receptors (HT-29 cells), sequence (P30989 whole entry, looked up): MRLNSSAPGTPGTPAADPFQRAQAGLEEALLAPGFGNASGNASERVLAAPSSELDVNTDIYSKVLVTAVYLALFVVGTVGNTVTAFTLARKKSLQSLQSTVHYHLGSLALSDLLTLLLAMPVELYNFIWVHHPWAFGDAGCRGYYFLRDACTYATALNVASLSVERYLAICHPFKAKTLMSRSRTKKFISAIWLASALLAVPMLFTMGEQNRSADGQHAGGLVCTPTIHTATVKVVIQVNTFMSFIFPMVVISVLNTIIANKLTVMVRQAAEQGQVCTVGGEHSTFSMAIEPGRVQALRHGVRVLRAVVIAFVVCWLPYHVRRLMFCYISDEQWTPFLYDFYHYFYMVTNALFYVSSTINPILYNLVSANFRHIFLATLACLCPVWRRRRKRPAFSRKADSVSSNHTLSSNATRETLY

NTS1 (HT-29 cells), sequence (P30989 whole entry, looked up): as above

SMILES | EC50 (NTS1 (HT-29 cells)) | DC50 [1] | DC50/EC50 [1]
CC[C@H](C)[C@H](NC(=O)[C@H](Cc1ccc(O)cc1)NC(=O)[C@@H]1CCCN1C(=O)[C@H](CCCNC(=N)N)NC(=O)[C@H](CCCNC(=N)N)NC(=O)[C@@H]1CCCN1C(=O)[C@H](CCCCN)NC(=O)[C@H](CC(N)=O)NC(=O)[C@H](C)NC(=O)[C@H](Cc1ccc(O)cc1)NC(=O)[C@H](CC(C)C)NC(=O)[C@@H]1CCC(=O)N1)C(=O)N[C@@H](CC(C)C)C(=O)O [[A4] NT] | 0.0006 ± 0.0001 µM | 0.0117 ± 0.0014 µM | 20
CC[C@H](C)[C@H](NC(=O)[C@H](Cc1ccc(O)cc1)NC(=O)[C@@H]1CCCN1C(=O)[C@H](CCCNC(=N)N)NC(=O)[C@H](CCCNC(=N)N)NC(=O)[C@@H]1CCCN1C(=O)[C@H](CCC(=O)O)NC(=O)[C@H](CC(N)=O)NC(=O)[C@H](CCC(=O)O)NC(=O)[C@H](Cc1ccc(O)cc1)NC(=O)[C@H](CC(C)C)NC(=O)[C@@H]1CCC(=O)N1)C(=O)N[C@@H](CC(C)C)C(=O)O [[E6] NT] | 0.0047 ± 0.0014 µM | 0.0575 ± 0.0059 µM | 12
CC[C@H](C)[C@H](NC(=O)[C@H](Cc1ccc(O)cc1)NC(=O)[C@@H]1CCCN1C(=O)[C@H](CCCNC(=N)N)NC(=O)[C@H](CCCNC(=N)N)NC(=O)[C@@H]1CCCN1C(=O)[C@H](CCCCN)NC(=O)[C@H](CC(N)=O)NC(=O)[C@H](CCCCN)NC(=O)[C@H](Cc1ccc(O)cc1)NC(=O)[C@H](CC(C)C)NC(=O)[C@@H]1CCC(=O)N1)C(=O)N[C@@H](CC(C)C)C(=O)O [[K4] NT] | 0.0014 ± 0.0001 µM | 0.0305 ± 0.0062 µM | 22
CC[C@H](C)[C@H](NC(=O)[C@H](Cc1ccc(O)cc1)NC(=O)[C@@H]1CCCN1C(=O)[C@H](CCCCN)NC(=O)[C@H](CCCCN)NC(=O)[C@@H]1CCCN1C(=O)[C@H](CCCCN)NC(=O)[C@H](CC(N)=O)NC(=O)[C@H](CCC(=O)O)NC(=O)[C@H](Cc1ccc(O)cc1)NC(=O)[C@H](CC(C)C)NC(=O)[C@@H]1CCC(=O)N1)C(=O)N[C@@H](CC(C)C)C(=O)O [[K8, K9] NT] ([pGlu]LYENKPKKPYIL-OH) | 0.0202 ± 0.0052 µM | 0.067 ± 0.0181 µM | 3.3
